# Measurements published in US10676471B2, “Cycloalkyl-linked diheterocycle derivatives” (Pfizer Inc., priority 2014, dated 2020).
# System: BT20 Cell
# Assay: Cancer Cell Lysate Total L-Glutamate Assay
# Type: cell-based
# Details: Homo sapiens, BT-20, 2 h, total L-glutamate in cell lysate, BT20 cells, 2 hour incubation with test compound
# How it was run: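 BT20 and other cancer lines at ~80% confluence were given fresh L-glutamine-containing medium, then treated with serially diluted compound (0.5% DMSO) for 2 hours at 37° C. Washed cells were lysed by freeze-thaw and sonication. Lysate glutamate was measured via glutamate oxidase/HRP/50 μM Amplex Red fluorescence (ex 530-560, em 585 nm); IC50 by four-parameter logistic fit.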
row,IC50 [nM],Structure (SMILES)
1,4.8,"O=C(Cc1ccccn1)Nc1nnc(C[C@H]2CC[C@@H](c3nnc(Nc4ccccn4)s3)C2)s1 (single isomer, unassigned) [Example 86, 2-(pyridin-2-yl)-N-[5-({(cis)-3-[5-(pyridin-2-ylamino)-1,3,4-thiadiazol-2-yl]cyclopentyl}methyl)-1,3,4-thiadiazol-2-yl]acetamide]"
2,3.9,"Cn1ccc(Nc2nnc([C@H]3CC[C@@H](Cc4nnc(NC(=O)Cc5ccccn5)s4)C3)s2)n1 (single isomer, unassigned) [Example 89, N-(5-{[(cis)-3-{5-[(1-methyl-1H-pyrazol-3-yl)amino]-1,3,4-thiadiazol-2-yl}cyclopentyl]methyl}-1,3,4-thiadiazol-2-yl)-2-(pyridin-2-yl)acetamide]"
3,1.3,"CCC(=O)Nc1ccc(C[C@@H]2CC[C@H](c3nnc(NC(=O)CCOC)s3)C2)nn1 (single isomer, unassigned) [Example 90, 3-methoxy-N-{5-[(cis)-3-{[6-(propanoylamino)pyridazin-3-yl]methyl}cyclopentyl]-1,3,4-thiadiazol-2-yl}propanamide]"
4,1.5,"CCC(=O)Nc1ccc(C[C@H]2CC[C@@H](c3nnc(NC(=O)Cc4ccn(C)n4)s3)C2)nn1 (single isomer, unassigned) [Example 91, N-(6-{[(cis)-3-(5-{[(1-methyl-1H-pyrazol-3-yl)acetyl]amino}-1,3,4-thiadiazol-2-yl)cyclopentyl]methyl}pyridazin-3-yl)propanamide]"
5,0.2,"CCC(=O)Nc1ccc(C[C@@H]2CC[C@H](c3nnc(NC(=O)Cc4ccn(C)n4)s3)C2)nn1 (single isomer, unassigned) [Example 92, N-(6-{[(cis)-3-(5-{[(1-methyl-1H-pyrazol-3-yl)acetyl]amino}-1,3,4-thiadiazol-2-yl)cyclopentyl]methyl}pyridazin-3-yl)propanamide]"
6,10.4,"CC(=O)Nc1nnc([C@H]2CC3(C[C@H](c4nnc(NC(C)=O)s4)C3)C2)s1 (single isomer, unassigned) [Example 93, N,N′-(spiro[3.3]heptane-2,6-diyldi-1,3,4-thiadiazole-5,2-diyl)diacetamide]"
7,0.3,"O=C(Cc1ccccn1)Nc1nnc([C@H]2CC3(C[C@H](c4nnc(NC(=O)Cc5ccccn5)s4)C3)C2)s1 (single isomer, unassigned) [Example 99, N,N′-(spiro[3.3]heptane-2,6-diyldi-1,3,4-thiadiazole-5,2-diyl)bis[2-(pyridin-2-yl)acetamide]]"
8,2.4,"CCNc1nnc([C@H]2C[C@@H](Cc3ccc(NC(=O)Cc4ccccc4)nn3)C2)s1 (single isomer, unassigned) [Example 100, N-[6-({cis-3-[5-(ethylamino)-1,3,4-thiadiazol-2-yl]cyclobutyl}methyl)pyridazin-3-yl]-2-phenylacetamide]"
9,339,"CCNc1nnc([C@@H]2CC[C@H](Cc3ccc(NC(=O)Cc4ccccn4)nn3)C2)s1 (single isomer, unassigned) [Example 101, N-[6-({(cis)-3-[5-(ethylamino)-1,3,4-thiadiazol-2-yl]cyclopentyl}methyl)pyridazin-3-yl]-2-(pyridin-2-yl)acetamide]"
10,2,"C[C@H](c1nnc(NC(=O)Cc2ccccn2)s1)[C@H]1C[C@@H](c2nnc(NC(=O)Cc3ccccn3)s2)C1 (single isomer, unassigned) [Example 102, 2-(pyridin-2-yl)-N-{5-[(1-(cis)-3-{5-[(pyridin-2-ylacetyl)amino]-1,3,4-thiadiazol-2-yl}cyclobutyl)ethyl]-1,3,4-thiadiazol-2-yl}acetamide]"
11,0.8,"C[C@@H](c1nnc(NC(=O)Cc2ccccn2)s1)[C@H]1C[C@@H](c2nnc(NC(=O)Cc3ccccn3)s2)C1 (single isomer, unassigned) [Example 103]"
12,8.6,"CC(C)C(=O)Nc1nnc(C[C@H]2C[C@@H](c3nnc(NC(=O)Cc4ccccn4)s3)C2)s1 (single isomer, unassigned) [Example 104, 2-methyl-N-{5-[(cis-3-{5-[(pyridin-2-ylacetyl)amino]-1,3,4-thiadiazol-2-yl}cyclobutyl)methyl]-1,3,4-thiadiazol-2-yl}propanamide]"
13,9.5,"CCC(=O)Nc1nnc([C@H]2C[C@@H](Cc3nnc(NC(=O)Cc4ccccn4)s3)C2)s1 (single isomer, unassigned) [Example 105, N-{5-[cis-3-({5-[(pyridin-2-ylacetyl)amino]-1,3,4-thiadiazol-2-yl}methyl)cyclobutyl]-1,3,4-thiadiazol-2-yl}propanamide]"
14,13.7,"CCC(=O)Nc1nnc([C@H]2C[C@H](Cc3nnc(NC(=O)Cc4ccccn4)s3)C2)s1 (single isomer, unassigned) [Example 106, N-{5-[trans-3-({5-[(pyridin-2-ylacetyl)amino]-1,3,4-thiadiazol-2-yl}methyl)cyclobutyl]-1,3,4-thiadiazol-2-yl}propanamide]"
15,10.1,"CC(=O)Nc1nnc(C[C@H]2C[C@@H](c3nnc(NC(=O)Cc4ccc(C)cn4)s3)C2)s1 (single isomer, unassigned) [Example 107, N-[5-(cis-3-{[5-(acetylamino)-1,3,4-thiadiazol-2-yl]methyl}cyclobutyl)-1,3,4-thiadiazol-2-yl]-2-(5-methylpyridin-2-yl)acetamide]"
16,0.3,"Cc1ccc(CC(=O)Nc2nnc(C[C@H]3C[C@@H](c4nnc(NC(=O)Cc5ccc(C)cn5)s4)C3)s2)nc1 (single isomer, unassigned) [Example 108, 2-(5-methylpyridin-2-yl)-N-(5-{[cis-3-(5-{[(5-methylpyridin-2-yl)acetyl]amino}-1,3,4-thiadiazol-2-yl)cyclobutyl]methyl}-1,3,4-thiadiazol-2-yl)acetamide]"
17,1.3,"Cc1ccc(CC(=O)Nc2nnc(C[C@H]3C[C@H](c4nnc(NC(=O)Cc5ccc(C)cn5)s4)C3)s2)nc1 (single isomer, unassigned) [Example 109, 2-(5-methylpyridin-2-yl)-N-(5-{[trans-3-(5-{[(5-methylpyridin-2-yl)acetyl]amino}-1,3,4-thiadiazol-2-yl)cyclobutyl]methyl}-1,3,4-thiadiazol-2-yl)acetamide]"
18,2.3,"O=C(Cc1ccccn1)Nc1ccc(C[C@@H]2CC[C@H](c3nnc(NC4CC4)s3)C2)nn1 (single isomer, unassigned) [Example 110, N-[6-({(cis)-3-[5-(cyclopropylamino)-1,3,4-thiadiazol-2-yl]cyclopentyl}methyl)pyridazin-3-yl]-2-(pyridin-2-yl)acetamide]"
19,1.2,"Cc1ccc(CC(=O)Nc2nnc(C[C@H]3C[C@@H](c4nnc(NC(=O)Cc5ccccn5)s4)C3)s2)nc1 (single isomer, unassigned) [Example 111, 2-(5-methylpyridin-2-yl)-N-{5-[(cis-3-{5-[(pyridin-2-ylacetyl)amino]-1,3,4-thiadiazol-2-yl}cyclobutyl)methyl]-1,3,4-thiadiazol-2-yl}acetamide]"
20,0.2,"Cc1ccc(CC(=O)Nc2nnc([C@H]3C[C@@H](Cc4nnc(NC(=O)Cc5ccccn5)s4)C3)s2)nc1 (single isomer, unassigned) [Example 112, 2-(5-methylpyridin-2-yl)-N-{5-[cis-3-({5-[(pyridin-2-ylacetyl)amino]-1,3,4-thiadiazol-2-yl}methyl)cyclobutyl]-1,3,4-thiadiazol-2-yl}acetamide]"
21,5.6,"CCNc1nnc([C@H]2C[C@H](Cc3ccc(NC(=O)Cc4ccccn4)nn3)C2)s1 (single isomer, unassigned) [Example 113, N-[6-({trans-3-[5-(ethylamino)-1,3,4-thiadiazol-2-yl]cyclobutyl}methyl)pyridazin-3-yl]-2-(pyridin-2-yl)acetamide]"
22,6.5,"CC(=O)Nc1ccc(C[C@H]2C[C@@H](c3nnc(NC(=O)Cc4ccccn4)s3)C2)nn1 (single isomer, unassigned) [Example 114, N-[5-(cis-3-{[6-(acetylamino)pyridazin-3-yl]methyl}cyclobutyl)-1,3,4-thiadiazol-2-yl]-2-(pyridin-2-yl)acetamide]"
23,2,"CC(=O)Nc1nnc([C@H]2C[C@H](Cc3ccc(NC(=O)Cc4ccccn4)nn3)C2)s1 (single isomer, unassigned) [Example 115, N-[6-({trans-3-[5-(acetylamino)-1,3,4-thiadiazol-2-yl]cyclobutyl}methyl)pyridazin-3-yl]-2-(pyridin-2-yl)acetamide]"
24,5.9,"O=C(Cc1ccccn1)Nc1ccc(C[C@H]2CC[C@@H](c3nnc(NC(=O)c4ccccn4)s3)C2)nn1 (single isomer, unassigned) [Example 116, N-{5-[(cis)-3-({6-[(pyridin-2-ylacetyl)amino]pyridazin-3-yl}methyl)cyclopentyl]-1,3,4-thiadiazol-2-yl}pyridine-2-carboxamide]"
25,1.4,"O=C(Cc1ccccn1)Nc1ccc(C[C@@H]2CC[C@H](c3nnc(NC(=O)c4ccccn4)s3)C2)nn1 (single isomer, unassigned) [Example 117, N-{5-[(cis)-3-({6-[(pyridin-2-ylacetyl)amino]pyridazin-3-yl}methyl)cyclopentyl]-1,3,4-thiadiazol-2-yl}pyridine-2-carboxamide]"
26,0.2,"O=C(Cc1ccccc1)Nc1ccc(C[C@H]2C[C@@H](c3nnc(NC(=O)Cc4ccccn4)s3)C2)nn1 (single isomer, unassigned) [Example 118, 2-phenyl-N-{6-[(cis-3-{5-[(pyridin-2-ylacetyl)amino]-1,3,4-thiadiazol-2-yl}cyclobutyl)methyl]pyridazin-3-yl}acetamide]"
27,4,"COCCC(=O)Nc1nnc([C@@H]2CC[C@H](Cc3ccc(NC(=O)Cc4ccccn4)nn3)C2)s1 (single isomer, unassigned) [Example 121, 3-methoxy-N-{5-[(cis)-3-({6-[(pyridin-2-ylacetyl)amino]pyridazin-3-yl}methyl)cyclopentyl]-1,3,4-thiadiazol-2-yl}propanamide]"
